Assay results reported in US20050137251A1, “Dexanabinol and dexanabinol analogs regulate inflammation related genes” (priority 2002, published 2005).

Tests used:
PGE2 secretion = assay: Inhibition of PGE2 secretion in LPS activated mouse macrophages (RAW 264.7); format: cell-based; details: RAW264.7, LPS activated RAW 264.7 cells
Procedure: The assay reproduces in vitro the true enzymatic activity, the test compounds, up to 10 μM, were preincubated for 5 minutes with purified COX-2, then the natural substrate AA was added and the reaction was allowed to proceed for 2 minutes. HCl was used to stop the enzyme catalysis and saturated stannous chloride was added to stabilize the PGH2 product into PGF2α.
RAW 264.7 macrophages, a mouse cell line (ATCC # TIB 71), were grown in Dulbecco's modified Eagle's medium (DMEM) with 4 mM L-glutamine adjusted to contain 1.5 g/L sodium bicarbonate, 4.5 g/L glucose, and 10% heat inactivated fetal bovine serum. Cells were grown in tissue culture flasks and seeded at appropriate density into 24 wells tissue culture plates. 0.5×10^6 Raw cells in one milliliter were stimulated with 2 μg/ml Lipopolysaccharide E. coli 055:B5 (DIFCO Laboratories). The mouse macrophages were pre-treated for one hour with controls or 10 μM of dexanabinol and its analogs, unless indicated otherwise, and later on activated with LPS.

IL-10 gene expression = IL-10 gene expression in MCAo mice brains; details: 5 mg/kg i.v., 18 hours of MCAo
COX-2 gene expression = COX-2 gene expression in activated Jurkat T cells; format: cell-based, human; details: 10 μM, normalized to GAPDH
Procedure: II reverse transcriptase (Life Technologies).
The human acute lymphoma T cell line Jurkat (ATCC # TIB 152) was used to test the possible immunosuppressive effect of dexanabinol and its analogs on T cell activation. The Jurkat cells were grown in RPMI 1640 medium with 2 mM L-glutamine adjusted to contain 1.5 g/L sodium bicarbonate, 4.5 g/L glucose, 10 mM HEPES, 1.0 mM sodium pyruvate, and 10% heat inactivated fetal bovine serum. Cells were grown in tissue culture flasks and seeded at appropriate density into 24 wells tissue culture plates. 2×10^6 cells in one milliliter were stimulated using 10 ng/ml of PMA (Sigma) and 1 μM A23187 calcium ionophore (Sigma). […] The controls and test compounds were added at indicated concentrations one hour before stimulation.
In addition, we used this experimental system to test the impact of dexanabinol and its analogs on COX-2 gene expression. Following activation of Jurkat cells with PMA and calcium ionophore we obtained elevated COX-2 gene expression levels. The impact of the test compounds on COX-2 was assessed as previously described for IL-2. FIG. 2 depicts the results of this experiment as fold activation of COX-2 over non-activated T cells. The results are plotted after normalization to GAPDH expression. […]

[1] = test system: MPTP model of neurodegeneration; assay: MPTP long-term model: rotarod functional outcome and mortality; format: in vivo, mice
Procedure: The mice (C57/BL male mice, average weight 30 g, Harlan, Israel) were administered i.p. with MPTP (Sigma, USA) (40 mg/kg, 5 ml/kg) in saline (Teva Medical, Israel) at 2 weeks interval for four times. The test compounds and controls were injected i.p. once just before the first MPTP administration at a volume dose of 5 ml/kg. Dexanabinol was tested at 20 mg/kg and PRS-211,220 was tested at 5 mg/kg. Each treatment group was composed of at least fourteen animals.
Seven days following each MPTP injection, the animals were submitted to a functional test using the rotarod apparatus as described by Rozas et al. (Rozas G. et al., J. of Neuroscience Methods 83: 165-75, 1998). The performance of the animals in the rotarod system, which measures overall locomotor ability, reflects their ability to achieve functions generally affected in PD. The animals were trained for 4 days before beginning the experiment. Their task was to stay on the accelerating rod without falling for 12 minutes (3 minutes at each speed). The tested speeds were: 15, 19, 23 and 27 rpm. Animal performance on the rod was scored as follows: each animal could obtain a maximum of 3 points (1 for each minute) for full walking on the rod at each speed. […]
Another parameter that was measured in this experiment is mortality, which was relatively high in this model.

[2] = test system: carrageenan induced paw edema; assay: Carrageenan induced paw edema; format: in vivo, mice; details: doses ranging from 0.2 to 0.5 mg/kg i.p., 3 hours after carrageenan
TNF-α secretion = TNF-α secretion in LPS activated macrophages; format: cell-based; details: Mus musculus, Macrophage, read-out: IC50 for inhibition of TNF-α secretion
Excerpt: The technique used to quantify the amount of a given protein in a liquid sample, either tissue culture supernatant or body fluid, is based on Enzyme Linked ImmunoSorbent Assay (ELISA) methodology. Either commercially available or established in house, the assay is based on the capture of the protein of interest by specific antibodies bound to the bottom of an ELISA plate well. Unbound material is washed away, the captured protein is then exposed to a secondary antibody generally labeled with horseradish peroxidase (HRP) or alkaline phosphatase (ALP). Again the unbound material is washed away, the samples are then incubated with the appropriate substrate yielding a colorimetric reaction. The reaction is stopped and reading is carried out in a spectrophotometer at the appropriate wavelength. Samples are tested at least in duplicate and the appropriate standard curve, consisting of serial dilutions of the recombinant target protein, is incorporated on each plate. Concentration of the protein in the sample is calculated from the standard curve.
RAW 264.7 macrophages, a mouse cell line (ATCC # TIB 71), were grown in Dulbecco's modified Eagle's medium (DMEM) with 4 mM L-glutamine adjusted to contain 1.5 g/L sodium bicarbonate, 4.5 g/L glucose, and 10% heat inactivated fetal bovine serum. […]

CCCCCCC(C)(C)c1cc(O)c2c(c1)OC(C)(C)[C@H]1CC=C(CO)C[C@H]21 [dexanabinol, 1,1-dimethylheptyl-(3S,4S)-7-hydroxy-Δ^6-tetrahydrocannabinol] was tested. Which IC50 (PGE2 secretion) did it give?
Its IC50 is 10 µM.

What about the “Further increase of IL-10 gene expression vs vehicle” value (IL-10 gene expression) of the same molecule?
The value was 4.4 fold.

And the “Inhibition of COX-2 gene expression” value (COX-2 gene expression)?
The value was 88%.

And the “Rotarod functional outcome vs vehicle” value ([1]; 20 mg/kg i.p., fourth session)?
The value was “positive trend”.

What about the Mortality ([1]; 20 mg/kg, MPTP only 69%) of the same molecule?
Its Mortality is 11%.

And the “Reduction in paw thickness” value [2]?
The value was “about 29%”.

And the IC50 (TNF-α secretion)?
The IC50 was 10 to 20 µM.
